Measured values reported in US6620796B1, “Combinatorial library synthesis and pharmaceutically active compounds produced thereby” (Micrologix Biotech Inc., priority 1999, dated 2003).
Read-outs that look alike come from different tables or passages of the source.

Experiments:
Assay type in all cases: cell-based
[1] = system: hepatits B virus (HBV); experiment: Inhibition of HBV: extracellular virion HBV DNA in 2.2.15 cell cultures; conditions: for HBV Virion DNA Levels at indicated Drug Concentration: untreated control 114±16 pg/ml
Experimental: Briefly, confluent 2.2.15 cell cultures infected with an HBV strain were treated with 9 consecutive daily doses of four concentrations of test compound. Extracellular virion HBV DNA levels were followed 24 hours after the last treatment. The level of HBV virion DNA in the 24 control (untreated) cultures in these experiments was 114±16 pg/ml culture medium.

[2] = Toxicity analysis by neutral red dye uptake in 2.2.15 cells; conditions: human, neutral red dye uptake
Experimental: (§1) Cells for toxicity analyses were cultured and treated with four concentrations of the test compound. Uptake of neutral red dye was used to determine the relative level of toxicity 24 hours following the last treatment. The absorbance of internalized dye at 510 nm (A510 ) was used for the quantitative analysis. The percentage of dye uptake in the control (untreated) cell cultures was 100±3.

[3] = system: 2.2.15 cells; experiment: as above
Experimental: as §1

[4] = HBV replication, 2.2.15 cells, 9 consecutive daily doses, virion DNA 24 hours after last treatment, read-out: EC50
[5] = HBV replication, 2.2.15 cells, 9 consecutive daily doses, virion DNA 24 hours after last treatment, read-out: EC90

Row | Compound | HBV Virion DNA Levels at indicated Drug Concentration ([1]; 0.01 μM, 2.2.15 cells) | HBV Virion DNA Levels at indicated Drug Concentration ([1]; 0.1 μM, 2.2.15 cells) | HBV Virion DNA Levels at indicated Drug Concentration ([1]; 1.0 μM, 2.2.15 cells) | HBV Virion DNA Levels at indicated Drug Concentration ([1]; 10 μM, 2.2.15 cells) | Selectivity Index (CC50/EC90) ([1]; HBV replication, 2.2.15 cells) | EC50 [1, 4] | EC90 [1, 5] | CC50 [2] | Neutral Red Dye Uptake at Indicated Drug Concentration ([3]; 10 μM) | Neutral Red Dye Uptake at Indicated Drug Concentration ([3]; 30 μM) | Neutral Red Dye Uptake at Indicated Drug Concentration ([3]; 100 μM) | Neutral Red Dye Uptake at Indicated Drug Concentration ([3]; 300 μM) | EC50 ([1]; 24 h) | EC90 ([1]; 24 h)
1 | Nc1ncnc2c1ncn2[C@H]1C[C@H](O)[C@@H](COP(=O)(S)OCc2ccc3ccccc3c2)O1 (stereo partly drawn) [Nucleoside W198-22] | 129 ± 13 pg/ml culture | 122 ± 13 pg/ml culture | 152 ± 11 pg/ml culture | 59 ± 2 pg/ml culture | >9.4 | 10 ± 1.1 µM | 32 ± 3.2 µM | > 300 µM | 99 ± 2 % of control | 101 ± 3 % of control | 102 ± 2 % of control | 103 ± 2 % of control |  | 
2 | C/C=C(/COP(=O)(S)OC[C@H]1O[C@@H](n2cnc3c(N)ncnc32)C[C@@H]1O)c1ccccc1 (stereo partly drawn) [Nucleoside W198-21] | 137 ± 14 pg/ml culture | 121 ± 13 pg/ml culture | 117 ± 12 pg/ml culture | 35 ± 4 pg/ml culture | >16 | 5.3 ± 0.6 µM | 19 ± 2.1 µM | > 300 µM | 99 ± 3 % of control | 99 ± 1 % of control | 100 ± 1 % of control | 100 ± 2 % of control |  | 
3 | C=C(C)[C@@H]1CC=C(COP(=O)(S)OC[C@H]2O[C@@H](n3cnc4c(N)ncnc43)C[C@@H]2O)CC1 (stereo partly drawn) [Nucleoside W198-24] | 140 ± 15 pg/ml culture | 133 ± 12 pg/ml culture | 149 ± 25 pg/ml culture | 62 ± 3 pg/ml culture | >7.7 | 12 ± 1.2 µM | 39 ± 4.1 µM | > 300 µM | 100 ± 1 % of control | 102 ± 2 % of control | 103 ± 1 % of control | 102 ± 1 % of control |  | 
4 | C=C(C)CC/C=C/COP(=O)(S)OC[C@H]1O[C@@H](n2cnc3c(N)ncnc32)C[C@@H]1O (stereo partly drawn) [Nucleoside W198-10] | 127 ± 10 pg/ml culture | 121 ± 10 pg/ml culture | 139 ± 10 pg/ml culture | 46 ± 2 pg/ml culture | >13 |  |  | > 300 µM | 100 ± 1 % of control | 102 ± 2 % of control | 99 ± 1 % of control | 98 ± 1 % of control | 7.7 ± 0.9 µM | 24 ± 0.8 µM
